Assay results reported in patent US20190031717A1, “MULTI-FUNCTIONAL FUSION POLYPEPTIDE, PREPARATION METHOD THEREOF, AND APPLICATION OF SAME” (NANJING ANJI BIOLOGICAL TECHNOLOGY CO., LTD, priority 2016, published 2019).

How the values were obtained:
Melanoma = assay: MTT assay, tumor cells; format: cell-based, human; parameters: concentration or dose not given beside the values; conditions: 48 hours, mean ± SD
Description: (§1) A variety of human tumor cells were cultured in a 37° C., 5% (volume fraction) CO2 incubator to a density of 90% or more, collected by trypsinization, resuspended in a culture medium and counted under a microscope, and the cells were harvested. The concentration was adjusted to 2.0×10^4 cells/mL, the cell suspension was inoculated into a 96-well plate at 100 μL per well and cultured overnight at 37° C. in a 5% (volume fraction) CO2 incubator. After the cells were completely adhered, the polypeptides of the present invention were added as drug-administered groups, and a culture solution containing no drug was used as a blank control group, and the culture solution was diluted to each predetermined concentration. Each dilution was separately added to a 96-well plate at 100 μL per well and incubated for 48 hours at 37° C. in a 5% (volume fraction) CO2 incubator. 20 μL of 5 mg/mL MTT was added to each well of a 96-well plate and incubation was continued for 4 h. The medium was aspirated and dissolved in 100 μL of DMSO per well. The absorbance was measured with a microplate reader at a detection wavelength of 570 nm and a reference wavelength of 630 nm, and the growth inhibition rate was calculated as follows: tumor growth inhibition rate (%)=(1−absorbance value of the administered group/unadministered group absorbance value)×100%, and the experiment was repeated 3 times independently. The results obtained from the test were expressed as mean±standard deviation, and the tumor growth inhibition rate of the unadministered group was 0. The results in Table 7 indicate that the polypeptides of the present invention have a significant inhibitory effect on the growth of various tumors (FIG. 6).

Head and neck cancer = assay: MTT assay, tumor cells; format: cell-based, human; parameters: concentration or dose not given beside the values; conditions: 48 hours, mean ± SD
Description: as §1

Breast cancer = assay: MTT assay, tumor cells; format: cell-based, human; parameters: concentration or dose not given beside the values; conditions: 48 hours, mean ± SD
Description: as §1

Kidney cancer = assay: MTT assay, tumor cells; format: cell-based, human; parameters: concentration or dose not given beside the values; conditions: 48 hours, mean ± SD
Description: as §1

Brain tumor = assay: MTT assay, tumor cells; format: cell-based, human; parameters: concentration or dose not given beside the values; conditions: 48 hours, mean ± SD
Description: as §1

Thyroid cancer = assay: MTT assay, tumor cells; format: cell-based, human; parameters: concentration or dose not given beside the values; conditions: 48 hours, mean ± SD
Description: as §1

Pancreatic cancer = assay: MTT assay, tumor cells; format: cell-based, human; parameters: concentration or dose not given beside the values; conditions: 48 hours, mean ± SD
Description: as §1

Prostate cancer = assay: MTT assay, tumor cells; format: cell-based, human; parameters: concentration or dose not given beside the values; conditions: 48 hours, mean ± SD
Description: as §1

Hemangioma = assay: MTT assay, tumor cells; format: cell-based, human; parameters: concentration or dose not given beside the values; conditions: 48 hours, mean ± SD
Description: as §1

sarcoma = assay: MTT assay, tumor cells; format: cell-based, human; parameters: concentration or dose not given beside the values; conditions: 48 hours, mean ± SD
Description: as §1

Cervical cancer = assay: MTT assay, tumor cells; format: cell-based, human; parameters: concentration or dose not given beside the values; conditions: 48 hours, mean ± SD
Description: as §1

Colorectal cancer = assay: MTT assay, tumor cells; format: cell-based, human; parameters: concentration or dose not given beside the values; conditions: 48 hours, mean ± SD
Description: as §1

Uterine cancer = assay: MTT assay, tumor cells; format: cell-based, human; parameters: concentration or dose not given beside the values; conditions: 48 hours, mean ± SD
Description: as §1

Bladder Cancer = assay: MTT assay, tumor cells; format: cell-based, human; parameters: concentration or dose not given beside the values; conditions: 48 hours, mean ± SD
Description: as §1

Liver cancer = assay: MTT assay, tumor cells; format: cell-based, human; parameters: concentration or dose not given beside the values; conditions: 48 hours, mean ± SD
Description: as §1

Gastric cancer = assay: MTT assay, tumor cells; format: cell-based, human; parameters: concentration or dose not given beside the values; conditions: 48 hours, mean ± SD
Description: as §1

Ovarian cancer = assay: MTT assay, tumor cells; format: cell-based, human; parameters: concentration or dose not given beside the values; conditions: 48 hours, mean ± SD
Description: as §1

Esophageal cancer = assay: MTT assay, tumor cells; format: cell-based, human; parameters: concentration or dose not given beside the values; conditions: 48 hours, mean ± SD
Description: as §1

[1] = system: Non-small cell lung cancer; assay: MTT assay, lung cancer tumor cells; format: cell-based, human; parameters: concentration or dose not given beside the values; conditions: 48 h, mean ± SD
Description: (§2) The inhibition of the growth of human lung cancer tumor cells by the polypeptide of the present invention was examined by MTT assay. The lung cancer tumor cells were cultured in a 37° C., 5% (volume fraction) CO2 incubator to a density of 90% or more, and collected by trypsinization. The cells were resuspended in the culture medium and counted under a microscope to adjust the cell concentration to 2.0×10^4 cells/mL, the cell suspension was inoculated into a 96-well plate at 100 μL per well, and cultured overnight at 37° C. in a 5% (volume fraction) CO2 incubator. After the cells were completely adhered, the polypeptide of the present invention was added as a drug-administered group, and a culture solution containing no drug was used as a blank control group, and the culture solution was diluted to each predetermined concentration. Each dilution was separately added to a 96-well plate at 100 μL per well and incubated for 48 h at 37° C. in a 5% (volume fraction) CO2 incubator. 20 μL of 5 mg/mL MTT was added to each well of a 96-well plate, and incubation was continued for 4 hours. The medium was aspirated, and the cells were dissolved in 100 μL of DMSO per well. The absorbance was measured by a microplate reader at a detection wavelength of 570 nm and a reference wavelength of 630 nm, and the growth inhibition rate was calculated as follows: tumor growth inhibition rate (%)=(1−administered group absorbance value/unadministered group absorbance value)×100%, and the experiment was repeated 3 times independently. The results obtained by the test were expressed as mean±standard deviation. The results in Table 6 indicate that the polypeptides of the present invention have a good inhibitory effect on proliferation of a variety of human lung cancer tumors (FIG. 5).

Large cell lung cancer = assay: MTT assay, lung cancer tumor cells; format: cell-based, human; parameters: concentration or dose not given beside the values; conditions: 48 h, mean ± SD
Description: as §2

Squamous cell carcinoma = assay: MTT assay, lung cancer tumor cells; format: cell-based, human; parameters: concentration or dose not given beside the values; conditions: 48 h, mean ± SD
Description: as §2

Adenocarcinoma = assay: MTT assay, lung cancer tumor cells; format: cell-based, human; parameters: concentration or dose not given beside the values; conditions: 48 h, mean ± SD
Description: as §2

Adenosquamous carcinoma = assay: MTT assay, lung cancer tumor cells; format: cell-based, human; parameters: concentration or dose not given beside the values; conditions: 48 h, mean ± SD
Description: as §2

Small Cell Lung Cancer = assay: MTT assay, lung cancer tumor cells; format: cell-based, human; parameters: concentration or dose not given beside the values; conditions: 48 h, mean ± SD
Description: as §2

pneumonia fungi = assay: Mouse pneumonia model, fungal; format: in vivo, BALB/C mice; parameters: concentration or dose not given beside the values; conditions: mean ± SD
Description: (§3) The mouse pneumonia model was successfully established by the nose-drop method. To build the mouse pneumonia model, BALB/C mice with a body mass of 16-22 g were selected and anesthetized pneumonia chain was prepared after anesthesia with ether on day 0, day 1, and day 2. Staphylococcal fluid, adenovirus concentrate, Mycoplasma pneumoniae, Chlamydia pneumoniae, protozoa, and pneumonia fungi were slowly dripped into the nasal cavity of the mice, so that they enter the tracheobronchial. During the operation process, care was exercised to prevent bacterial fluid from flowing into the esophagus, which leads to inactivation the bacterial fluid. After successful model establishment, the polypeptides of the present invention were administered, and the results were shown in Table 5. […] The results were expressed in average value±standard deviation.

adenovirus concentrate = assay: Mouse pneumonia model, viral; format: in vivo, BALB/C mice; conditions: mean ± SD
Description: as §3

Chlamydia pneumoniae = assay: Mouse pneumonia model, chlamydia; format: in vivo, BALB/C mice; parameters: concentration or dose not given beside the values; conditions: mean ± SD
Description: as §3

[2] = system: Pneumonia caused by lung infection; assay: Mouse pneumonia model, pneumonia caused by lung infection; format: in vivo, BALB/C mice; parameters: concentration or dose not given beside the values; conditions: mean ± SD
Description: as §3

Staphylococcal fluid = assay: Mouse pneumonia model, bacterial; format: in vivo, BALB/C mice; parameters: concentration or dose not given beside the values; conditions: mean ± SD
Description: as §3

Mycoplasma pneumoniae = assay: Mouse pneumonia model, mycoplasma; format: in vivo, BALB/C mice; parameters: concentration or dose not given beside the values; conditions: mean ± SD
Description: as §3

protozoa = assay: Mouse pneumonia model, protozoal; format: in vivo, BALB/C mice; parameters: concentration or dose not given beside the values; conditions: mean ± SD
Description: as §3

CC(=O)O[C@@]12CO[C@@H]1C[C@H](O)[C@@]1(C)C(=O)[C@H](O)C3=C(C)[C@@H](OC(=O)[C@H](O)[C@@H](NC(=O)OC(C)(C)C)c4ccccc4)C[C@@](O)([C@@H](OC(=O)c4ccccc4)[C@H]21)C3(C)C [Docetaxel, reference compound]
tumor growth inhibition rate, MTT Assay (Melanoma): 38.17 ± 11.54% | tumor growth inhibition rate, MTT Assay (Head and neck cancer): 32.59 ± 9.86% | tumor growth inhibition rate, MTT Assay (Breast cancer): 61.44 ± 18.58% | tumor growth inhibition rate, MTT Assay (Kidney cancer): 40.23 ± 15.44% | tumor growth inhibition rate, MTT Assay (Brain tumor): 45.90 ± 13.88% | tumor growth inhibition rate, MTT Assay (Thyroid cancer): 42.03 ± 12.71% | tumor growth inhibition rate, MTT Assay (Pancreatic cancer): 49.42 ± 18.21% | tumor growth inhibition rate, MTT Assay (Prostate cancer): 54.25 ± 19.68% | tumor growth inhibition rate, MTT Assay (Hemangioma): 68.47 ± 20.71% | tumor growth inhibition rate, MTT Assay (sarcoma): 44.26 ± 13.39% | tumor growth inhibition rate, MTT Assay (Cervical cancer): 50.54 ± 21.82% | tumor growth inhibition rate, MTT Assay (Colorectal cancer): 57.20 ± 17.30% | tumor growth inhibition rate, MTT Assay (Uterine cancer): 52.33 ± 19.09% | tumor growth inhibition rate, MTT Assay (Bladder Cancer): 34.82 ± 10.53% | tumor growth inhibition rate, MTT Assay (Liver cancer): 48.95 ± 14.80% | tumor growth inhibition rate, MTT Assay (Gastric cancer): 43.57 ± 16.44% | tumor growth inhibition rate, MTT Assay (Ovarian cancer): 60.97 ± 18.44% | tumor growth inhibition rate, MTT Assay (Esophageal cancer): 44.16 ± 13.36% | tumor growth inhibition rate, MTT Assay [1]: 55.50 ± 19.83% | tumor growth inhibition rate, MTT Assay (Large cell lung cancer): 52.69 ± 16.12% | tumor growth inhibition rate, MTT Assay (Squamous cell carcinoma): 39.78 ± 10.73% | tumor growth inhibition rate, MTT Assay (Adenocarcinoma): 52.54 ± 15.12% | tumor growth inhibition rate, MTT Assay (Adenosquamous carcinoma): 35.87 ± 13.84% | tumor growth inhibition rate, MTT Assay (Small Cell Lung Cancer): 42.16 ± 14.54%

Penicillin [reference compound]
Inhibitory Effects on Various Pulmonary Infections (pneumonia fungi): 35.13 ± 16.62% | Inhibitory Effects on Various Pulmonary Infections (adenovirus concentrate): 35.02 ± 15.58% | Inhibitory Effects on Various Pulmonary Infections (Chlamydia pneumoniae): 28.10 ± 14.99% | Inhibitory Effects on Various Pulmonary Infections [2]: 31.03 ± 18.46% | Inhibitory Effects on Various Pulmonary Infections (Staphylococcal fluid): 26.52 ± 11.07% | Inhibitory Effects on Various Pulmonary Infections (Mycoplasma pneumoniae): 23.91 ± 14.27% | Inhibitory Effects on Various Pulmonary Infections (protozoa): 37.00 ± 20.45%
